{"source": "ChEMBL document CHEMBL6115002", "about": "“Discovery of novel sitolactone derivative leading to PANoptosis and differentiation of acute myeloid leukemia cells” (Eur J Med Chem, 2025)", "format_in_all_cases": "functional, cell-based", "key": {"[1]": {"system": "PANC-1", "experiment": "Antiproliferative activity against human PANC-1 cells assessed as inhibition of cell proliferation incubated for 72 hrs by CCK-8 assay", "conditions": "PANC-1, 72 h"}, "[2]": {"system": "Kasumi 1", "experiment": "Inhibition of colony formation in human Kasumi 1 cells incubated for 15 days by crystal violet staining based analysis", "conditions": "dose 0.5-1 µM, time 15.0 day"}, "[3]": {"system": "Kasumi 1", "experiment": "Disruption of carbon metabolic pathway in human Kasumi 1 cells by KEGG enrichment analysis"}}, "note": "The source made the active and inactive calls. No cut-off for these calls is given here."}
{"compound": "C=C1C[C@@H]2[C@@H](CC[C@]3(C)[C@@H](O[Si](C(C)C)(C(C)C)C(C)C)CC[C@@H]23)OC1=O", "values": [{"measurement": "IC50", "setting": "[1]", "value": 1310, "unit": "nM"}, {"measurement": "inhibition", "setting": "[2]", "value": "Dose-dependent-effect"}, {"measurement": "Activity", "setting": "[3]", "value": "Active"}]}
